The values below come from patent US20230024096A1, “BIFUNCTIONAL COMPOUNDS FOR THE TREATMENT OF CANCER” (Hoffmann-La Roche Inc., priority 2019, published 2023).

SMILES strings stand for the structures.

The term Emax denotes the size of the effect at its maximum, as opposed to the concentration needed.

This assay concerns the target T1, SMARCA2 (Homo sapiens, UniProt P51531).
T1 construct: endogenous in cells; host or cells: HT1080 (CRISPR HiBiT knock-in clone, generated in house)
Briefly: SMARCA2 HiBiT degradation assay (cellular). Type of assay: cell-based. The following applies: table head names A549; for DC50: 6 h incubation, HiBiT-tagged SMARCA2, luminescence read-out, read-out: HiBit A549 SMARCA2 IP (nM) 6 h; for Emax: A549, 6 h incubation, Emax = amount of residual protein remaining in the cell following compound treatment. Background: With HiBiT, luminescence reflects the tagged protein that the partner subunit can reach.

T1 sequence (P51531 whole entry): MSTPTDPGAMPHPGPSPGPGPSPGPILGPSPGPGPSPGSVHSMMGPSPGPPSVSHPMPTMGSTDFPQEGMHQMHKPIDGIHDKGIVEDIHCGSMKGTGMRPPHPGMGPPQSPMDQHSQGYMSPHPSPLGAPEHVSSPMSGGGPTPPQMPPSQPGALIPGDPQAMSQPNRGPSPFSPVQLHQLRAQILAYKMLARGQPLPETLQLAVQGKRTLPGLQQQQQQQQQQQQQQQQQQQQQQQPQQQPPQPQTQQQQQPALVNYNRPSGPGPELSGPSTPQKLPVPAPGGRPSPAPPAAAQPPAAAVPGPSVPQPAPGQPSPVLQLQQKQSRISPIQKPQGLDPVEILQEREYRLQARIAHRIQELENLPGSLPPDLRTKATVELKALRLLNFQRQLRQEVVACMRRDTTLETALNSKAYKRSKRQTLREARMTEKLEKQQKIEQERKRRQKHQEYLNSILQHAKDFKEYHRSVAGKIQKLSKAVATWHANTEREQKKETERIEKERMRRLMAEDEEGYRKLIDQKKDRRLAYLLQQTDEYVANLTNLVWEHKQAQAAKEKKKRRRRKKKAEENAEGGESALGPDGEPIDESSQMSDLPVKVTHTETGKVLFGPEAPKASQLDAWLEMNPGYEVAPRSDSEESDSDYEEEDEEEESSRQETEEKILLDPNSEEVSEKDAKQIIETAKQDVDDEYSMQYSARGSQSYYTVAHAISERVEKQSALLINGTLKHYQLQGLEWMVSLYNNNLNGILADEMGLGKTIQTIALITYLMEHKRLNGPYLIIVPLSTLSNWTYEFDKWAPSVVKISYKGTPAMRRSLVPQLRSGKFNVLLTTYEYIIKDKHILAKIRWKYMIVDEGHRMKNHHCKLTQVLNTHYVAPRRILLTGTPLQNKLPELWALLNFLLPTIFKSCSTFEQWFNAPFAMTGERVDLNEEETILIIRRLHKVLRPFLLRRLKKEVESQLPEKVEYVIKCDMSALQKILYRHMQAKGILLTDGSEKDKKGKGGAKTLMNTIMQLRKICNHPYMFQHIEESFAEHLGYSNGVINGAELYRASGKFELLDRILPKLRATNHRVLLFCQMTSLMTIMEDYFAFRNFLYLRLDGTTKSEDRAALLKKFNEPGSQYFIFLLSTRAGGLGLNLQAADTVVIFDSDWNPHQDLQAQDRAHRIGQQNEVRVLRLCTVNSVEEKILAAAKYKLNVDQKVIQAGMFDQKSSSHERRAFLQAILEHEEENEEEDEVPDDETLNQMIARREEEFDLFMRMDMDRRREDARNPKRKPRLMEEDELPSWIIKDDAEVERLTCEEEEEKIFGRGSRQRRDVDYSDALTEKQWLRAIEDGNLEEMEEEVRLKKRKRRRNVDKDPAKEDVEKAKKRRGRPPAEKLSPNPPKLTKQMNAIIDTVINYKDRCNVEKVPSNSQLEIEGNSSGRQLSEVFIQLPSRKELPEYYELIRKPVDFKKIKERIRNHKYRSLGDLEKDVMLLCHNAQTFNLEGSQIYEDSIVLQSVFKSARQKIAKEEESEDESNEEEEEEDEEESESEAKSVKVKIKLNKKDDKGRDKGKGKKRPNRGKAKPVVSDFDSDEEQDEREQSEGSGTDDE

As for `Nc1nnc(-c2ccccc2O)cc1N1CCC(C(=O)N2CCC(C(=O)N3CCN(c4ccc5c(c4)C(=O)N(C4CCC(=O)NC4=O)C5=O)CC3)CC2)(c2ccccc2)CC1` (stereo not drawn) [Example 178, 5-(4-(1-(1-(3-amino-6-(2-hydroxyphenyl)pyridazin-4-yl)-4-phenylpiperidine-4-carbonyl)piperidine-4-carbonyl)piperazin-1-yl)-2-(2,6-dioxopiperidin-3-yl)isoindoline-1,3-dione], the DC50 is 187 nM and the Emax is 46%.

As for `Nc1nnc(-c2ccccc2O)cc1N1CC2CCC(C1)N2c1cccc(OCCN2CCN(C(=O)CCCCCCNc3cccc4c3C(=O)N(C3CCC(=O)NC3=O)C4=O)CC2)c1` (stereo not drawn) [Example 1, 4-[[7-[4-[2-[3-[3-[3-amino-6-(2-hydroxyphenyl)pyridazin-4-yl]-3,8-diazabicyclo[3.2.1]octan-8-yl]phenoxy]ethyl]piperazin-1-yl]-7-oxo-heptyl]amino]-2-(2,6-dioxo-3-piperidyl)isoindoline-1,3-dione], the DC50 worked out at 68 nM and the maximum response (Emax) was found to be 55%.

On to `Nc1nnc(-c2ccccc2O)cc1N1CCC(C(=O)N2CCC(NC(=O)C3CCN(c4ccc5c(c4)C(=O)N(C4CCC(=O)NC4=O)C5=O)CC3)CC2)(c2ccccc2)CC1` (stereo not drawn) [Example 119, N-(1-(1-(3-amino-6-(2-hydroxyphenyl)pyridazin-4-yl)-4-phenylpiperidine-4-carbonyl)piperidin-4-yl)-1-(2-(2,6-dioxopiperidin-3-yl)-1,3-dioxoisoindolin-5-yl)piperidine-4-carboxamide], for which the DC50 turned out to be 35 nM and the Emax came to 50%.

For `Nc1nnc(-c2ccccc2O)cc1N1CCC(C(=O)N2CC3(CCN(C(=O)CC4CCN(c5ccc6c(c5)C(=O)N(C5CCC(=O)NC5=O)C6=O)CC4)CC3)C2)(c2ccccc2)CC1` (stereo not drawn) [Example 164, 5-(4-(2-(2-(1-(3-amino-6-(2-hydroxyphenyl)pyridazin-4-yl)-4-phenylpiperidine-4-carbonyl)-2,7-diazaspiro[3.5]nonan-7-yl)-2-oxoethyl)piperidin-1-yl)-2-(2,6-dioxopiperidin-3-yl)isoindoline-1,3-dione], the DC50 is 42 nM and the Emax is 50%.

Consider `Nc1nnc(-c2ccccc2O)cc1N1CCC(C(=O)N2CC3(CCN(C(=O)CN4CCC(c5ccc(NC6CCC(=O)NC6=O)cc5)CC4)CC3)C2)(c2ccccc2)CC1` (stereo not drawn) [Example 165, 3-((4-(1-(2-(2-(1-(3-amino-6-(2-hydroxyphenyl)pyridazin-4-yl)-4-phenylpiperidine-4-carbonyl)-2,7-diazaspiro[3.5]nonan-7-yl)-2-oxoethyl)piperidin-4-yl)phenyl)amino)piperidine-2,6-dione], for which the DC50 amounted to 28 nM and the Emax turned out to be 38%.

Consider `Nc1nnc(-c2ccccc2O)cc1OCC(CNC(=O)CN1CCC(c2ccc(OC3CCC(=O)NC3=O)cc2)CC1)c1ccccc1` (racemic) [Example 98, N-[3-[3-amino-6-(2-hydroxyphenyl)pyridazin-4-yl]oxy-2-phenyl-propyl]-2-[4-[4-[(2,6-dioxo-3-piperidyl)oxy]phenyl]-1-piperidyl]acetamide;2,2,2-trifluoroacetic acid (racemic mixture of diastereomers)], for which the DC50 turned out to be 182 nM and the Emax amounted to 63%.

Take `Nc1nnc(-c2ccccc2O)cc1N1CCC2(CC1)CN(c1cccc(OCCN3CCN(C(=O)C4CCN(c5ccc6c(c5)C(=O)N(C5CCC(=O)NC5=O)C6=O)CC4)CC3)c1)CCO2` (stereo not drawn) [Example 83, 5-(4-(4-(2-(3-(9-(3-amino-6-(2-hydroxyphenyl)pyridazin-4-yl)-1-oxa-4,9-diazaspiro[5.5]undecan-4-yl)phenoxy)ethyl)piperazine-1-carbonyl)piperidin-1-yl)-2-(2,6-dioxopiperidin-3-yl)isoindoline-1,3-dione]: the DC50 was 273 nM and the Emax stood at 59%.

For `Nc1nnc(-c2ccccc2O)cc1N1CCN(c2cccc(OCCN3CCN(C(=O)C4CCN(c5ccc6c(c5)C(=O)N(C5CCC(=O)NC5=O)C6=O)CC4)CC3)c2)C2(CC2)C1` (stereo not drawn) [Example 84, 5-(4-(4-(2-(3-(7-(3-amino-6-(2-hydroxyphenyl)pyridazin-4-yl)-4,7-diazaspiro[2.5]octan-4-yl)phenoxy)ethyl)piperazine-1-carbonyl)piperidin-1-yl)-2-(2,6-dioxopiperidin-3-yl)isoindoline-1,3-dione], the DC50 turned out to be 17 nM and the Emax came out at 26%.

In the case of `Nc1nnc(-c2ccccc2O)cc1N1CC2CCC(C1)N2c1cccc(OCCN2CCN(C(=O)CCC(=O)N3CCC(Oc4cccc5c4C(=O)N(C4CCC(=O)NC4=O)C5=O)CC3)CC2)c1` (racemic) [Example 9, rac-4-[[1-[4-[4-[2-[3-[3-[3-amino-6-(2-hydroxyphenyl)pyridazin-4-yl]-3,8-diazabicyclo[3.2.1]octan-8-yl]phenoxy]ethyl]piperazin-1-yl]-4-oxo-butanoyl]-4-piperidyl]oxy]-2-(2,6-dioxo-3-piperidyl)isoindoline-1,3-dione], the DC50 is 339 nM and the Emax amounted to 58%.

Regarding `Nc1nnc(-c2ccccc2O)cc1N1CC2CCC(C1)N2c1cccc(CC2CCN(C(=O)CCC3CCN(c4ccc5c(c4)C(=O)N(C4CCC(=O)NC4=O)C5=O)CC3)CC2)c1` (racemic) [Example 59, rac-5-[4-[3-[4-[[3-[3-[3-amino-6-(2-hydroxyphenyl)pyridazin-4-yl]-3,8-diazabicyclo[3.2.1]octan-8-yl]phenyl]methyl]-1-piperidyl]-3-oxo-propyl]-1-piperidyl]-2-(2,6-dioxo-3-piperidyl)isoindoline-1,3-dione], the DC50 is 129 nM and the Emax was 65%.

`Nc1nnc(-c2ccccc2O)cc1N1CCC(C(=O)N2CC3(CCN(CCC4CCN(c5ccc6c(c5)C(=O)N(C5CCC(=O)NC5=O)C6=O)CC4)C3)C2)(c2ccccc2)CC1` (stereo not drawn) [Example 191, 5-(4-(2-(2-(1-(3-amino-6-(2-hydroxyphenyl)pyridazin-4-yl)-4-phenylpiperidine-4-carbonyl)-2,6-diazaspiro[3.4]octan-6-yl)ethyl)piperidin-1-yl)-2-(2,6-dioxopiperidin-3-yl)isoindoline-1,3-dione]: the DC50 amounted to 30 nM and the Emax was 37%.

With `Nc1nnc(-c2ccccc2O)cc1N1CC2CCC(C1)N2c1cccc(CN2CCC(C(=O)NC3CN(c4ccc5c(c4)C(=O)N(C4CCC(=O)NC4=O)C5=O)C3)CC2)c1` (racemic) [Example 134, rac-1-[[3-[3-[3-amino-6-(2-hydroxyphenyl)pyridazin-4-yl]-3,8-diazabicyclo[3.2.1]octan-8-yl]phenyl]methyl]-N-[1-[2-(2,6-dioxo-3-piperidyl)-1,3-dioxo-isoindolin-5-yl]azetidin-3-yl]piperidine-4-carboxamide], the DC50 amounted to 31 nM and the Emax is 36%.

As to `Nc1nnc(-c2ccccc2O)cc1N1CC2CCC(C1)N2c1cccc(OCCN2CCN(C(=O)N3CCC(c4ccc(OC5CCC(=O)NC5=O)cc4)CC3)CC2)c1` (racemic) [Example 50, rac-3-[4-[1-[4-[2-[3-[3-[3-amino-6-(2-hydroxyphenyl)pyridazin-4-yl]-3,8-diazabicyclo[3.2.1]octan-8-yl]phenoxy]ethyl]piperazine-1-carbonyl]-4-piperidyl]phenoxy]piperidine-2,6-dione], the DC50 was 16 nM and the Emax was 44%.

Consider `Nc1nnc(-c2ccccc2O)cc1N1CC2CCC(C1)N2c1cccc(CN2CCC(C(=O)N3CCC(Oc4ccc5c(c4)C(=O)N(C4CCC(=O)NC4=O)C5=O)CC3)CC2)c1` (racemic) [Example 96, rac-5-[[1-[1-[[3-[3-[3-amino-6-(2-hydroxyphenyl)pyridazin-4-yl]-3,8-diazabicyclo[3.2.1]octan-8-yl]phenyl]methyl]piperidine-4-carbonyl]-4-piperidyl]oxy]-2-(2,6-dioxo-3-piperidyl)isoindoline-1,3-dione], for which the DC50 is 7 nM and the Emax is 27%.

In the case of `Nc1nnc(-c2ccccc2O)cc1N1CC2CCC(C1)N2c1cccc(CN2CCC(C(=O)N3CCC(c4ccc(OC5CCC(=O)NC5=O)cc4)CC3)CC2)c1` (racemic) [Example 92, rac-3-[4-[1-[1-[[3-[3-[3-amino-6-(2-hydroxyphenyl)pyridazin-4-yl]-3,8-diazabicyclo[3.2.1]octan-8-yl]phenyl]methyl]piperidine-4-carbonyl]-4-piperidyl]phenoxy]piperidine-2,6-dione], the DC50 came to 17 nM and the Emax was determined as 41%.

As for `Nc1nnc(-c2ccccc2O)cc1N1CCC(C(=O)N2CCC(C(=O)N3CCC(c4ccc(NC5CCC(=O)NC5=O)cn4)CC3)CC2)(c2ccccc2)CC1` (stereo not drawn) [Example 177, 3-((6-(1-(1-(1-(3-amino-6-(2-hydroxyphenyl)pyridazin-4-yl)-4-phenylpiperidine-4-carbonyl)piperidine-4-carbonyl)piperidin-4-yl)pyridin-3-yl)amino)piperidine-2,6-dione], the DC50 amounted to 174 nM and the Emax turned out to be 69%.

On to `Nc1nnc(-c2ccccc2O)cc1O[C@@H]1CCCN(c2ccc(N3CCN(CCCCCCCCCn4cc(CNc5cccc6c5C(=O)N(C5CCC(=O)NC5=O)C6=O)nn4)CC3)cc2)C1` (stereo partly drawn) [Example 63, 4-[[1-[9-[4-[4-[(3R)-3-[3-amino-6-(2-hydroxyphenyl)pyridazin-4-yl]oxy-1-piperidyl]phenyl]piperazin-1-yl]nonyl]triazol-4-yl]methylamino]-2-(2,6-dioxo-3-piperidyl)isoindoline-1,3-dione], for which the DC50 amounted to 59 nM and the Emax was 27%.

On to `Nc1nnc(-c2ccccc2O)cc1OC1CCCN(c2ccc(N3CCN(C(=O)CCCCCCCCCn4cc(CNc5cccc6c5C(=O)N(C5CCC(=O)NC5=O)C6=O)nn4)CC3)cc2)C1` (stereo not drawn) [Example 28, 4-[[1-[10-[4-[4-[3-[3-amino-6-(2-hydroxyphenyl)pyridazin-4-yl]oxy-1-piperidyl]phenyl]piperazin-1-yl]-10-oxo-decyl]triazol-4-yl]methylamino]-2-(2,6-dioxo-3-piperidyl)isoindoline-1,3-dione], for which the DC50 turned out to be 91 nM and the Emax stood at 48%.
